The subject of one experiment is HEPG2 (ASGPR+). Put plainly: Adherence of NK/LAK activity to HEPG2 monolayers at 23° C. Format: cell-based, human. As for the experimental part:
(§1) This experiment is the same as above, except that the adherence to monolayers was performed at 23° C. and not 4° C., for 2 hours. Two monolayers were used: HEPG2, an ASGPR+ cell line, and CAKI-2 (human renal cell carcinoma), an ASGPR− cell line. The effector cell populations that were used were: an untreated 3-day old LAK preparation (LAK) and the same population treated with Vibrio cholera neuraminidase (LAK/NS) (30 mU/1×10^7 cells/200 μl). The neuraminidase-treated population was the asialopositive lymphocyte control. All cell populations regardless of treatment were greater than 90% viable at the time of assay. Each type of effector population was incubated with media alone, 200 μg/ml ASF or F, as controls. All effectors were assayed on RAJI (LAK-sensitive target; NK-insensitive target) or K562 (NK/LAK-sensitive target); the E:T ratios and the graphic presentation are the same above.
(§2) Five-day LAK preparations (20 U/ml; 1 Dupont unit=44.5 BRMP units) grown in AIM-V (Gibco) were treated (according to the protocols in B. 1.2.3 & 1.2.4) with 3 OmU Vibric Cholera neuramindase, 0.48 mU 2,3-or 10 mu 2,6-silalyltransferase per 107 cells. Some of the effectors were incubated in media, 10% PBS in RPMJ 1640 at 23° C. for 2 hours. 2×107 effectors from the untreated LALK, neuramithdase-treated LAK, LAK treated with 2,3 or 2,6 were suspended in 15 ml media and placed onto either HEPG2 (ASGPR+) or CAKI-2 (ASGPR−) monolayers at 23° C. for 2 hours. The flasks were rocked every 15 minutes. The nonadherent cells from these monolayers were decanted and assayed against K562 and RAJI, in addition to the unadhered controls. The E:T ratios used were 40, 20, 10, and 5 to 1.

Experiment [1] has as its system RAJI (LAK-sensitive target; NK-insensitive target). Put plainly: Cytotoxic capacity of LAK effectors in 51Cr-release assay on RAJI. Format: cell-based, human. The note with it: for LAK activity (killing of RAJI) after enzyme treatment of effector cell surface: enzyme-treated LAK cells. As for the experimental part: Control cells (no IL-2 treatment) or LAK cells (IL-2-treated human peripheral blood lymphocytes cultured 10U IL-2/ml for 3 days) were adhered to a monolayer of HEP G2 cells for 2 hours at 4° C. The monolayer was pretreated either with asialofetuin (ASF, 200 μg/ml) in media or with fetuin (F, control, 200 μg/ml)) in media. After the Control or LAK cells had been incubated on the monolayer, these cells were then decanted, washed, and tested for cytotoxic capacity in a ^51Cr-release assay against the NK-resistant target, Raji.
as §1, §2

In experiment [2] the test system is K562 (NK/LAK-sensitive target). Put plainly: Cytotoxic capacity of IL-2 activated NK effectors in 51Cr-release assay on K562. Format: cell-based, human. As for the experimental part: as §1, §2
The subject of the next experiment is CAKI-2 (ASGPR−). Put plainly: Adherence of NK/LAK activity to CAKI-2 monolayers at 23° C. In kind it is cell-based, human. As to the method: as §1, §2
For experiment [3], the system named is human mesenchymal stem cells (MSC). Put plainly: In vivo trafficking of 111In-labeled human mesenchymal stem cells (MSC) after glycoprotein infusion, gamma camera imaging. Also noted: species or system NOD-SCID mice. The following applies: for % Infused Cells in Liver/Spleen: 0.56×10^6 MSC preceded by 4.3 mg ASO followed by 5.5 mg orosomucoid i.v. As to the method:
Human mesenchymal stem cells (hMSCs; PT-2501) obtained through a FDA monitored paid bone marrow donor program were purchased from Poietics Technologies, BioWhittaker (Walkerville, Md.). The cells were thawed according to manufacturer recommendations, resuspended, and radiolabeled in Mesenchymal Stem Cell Basal Medium (MSCBM).
(§3) ^111Indium Oxine Labeling Procedure: ^111In-oxine labeling of adult human CD34+ or mesenchymal stem cells (hMSCs) was performed using a modification of the Amersham Healthcare Procedure for labeling autologous leukocytes.
(§4) Imaging procedures: Nuclear Medicine. NOD-SCID mice were anesthetized using rodent anesthesia cocktail. Once anesthetized, the mice were placed on a foam hemi-cylindrical mouse positioning device (MPD) and covered with a tube sock. The MPD allows better visual separation of the lungs and liver as compared to placing the mouse on a flat surface. The foam on which the mouse was placed, and the tube sock covering maintained a comfortable temperature permitting longer imaging without additional anesthesia. The MPD was placed on a narrow table between the dual heads of a Siemens E.Cam Gamma Camera and imaged statically or dynamically in 2-D or SPECT. ^57Co-Spot Marker is used to mark anatomic positions (nose, tail, cannula, etc.). The data was analyzed using a Siemens ICON system for regions of interest or percent of injected dose (e.g. liver, spleen, heart).
(§5) Gamma camera imaging using a Siemens E. Cam dual head gamma camera monitored the in vivo trafficking patterns of all human stem cells described in the following examples. Mice were placed on a Mouse Positioning Device (MPD) and placed between the detectors on the imaging platform.
MSC were obtained from BioWhittaker, (Poietics Division, cryopreserved PT-2501 >750,000 cells per ampoule) and labeled with ^111In as in previous examples, except that the MSC were labeled, washed, and injected in Basal Stem Cell Medium (Poietics) containing 5% human serum albumin (HSA). 0.56×10^6 111In labeled, human mesenchymal stem cells (MSC) were administered via an implanted Da Vinci Microport Vascular System cannula in the external jugular vein of a two-month old, female NOD-SCID mouse in 0.21 ml of basal stem cell medium containing 5% human serum albumin (HSA). Immediately prior to administration of MSC, 11.0 mg of orosomucoid was administered i.v. in 0.2 ml.
0.56×10^6 “In-labeled, MSC were administered i.v. in 0.21 ml of basal stem cell medium containing 5% human serum albumin (HSA). Prior to administration of MSC, 0.1 ml containing 4.3 mg of ASO, followed by 0.1 ml containing 5.5 mg orosomucoid were administered i.v. The ASO, orosomucoid and MSC were administered via an implanted Da Vinci Microport Vascular system cannula in the external jugular vein of a two-month old, female NOD-SCID mouse.

Experiment [4] relates to human CD34+ (hCD34+) peripheral blood stem cells. Put plainly: In vivo trafficking of 111In-labeled human CD34+ stem cells (HSC) after glycoprotein infusion, gamma camera imaging. Also noted: species or system NOD-SCID mice. The note with it: for organ localization of infused hematopoietic (CD34+) stem cells, in words: cells preceded by infusion of the protein, jugular vein, immunodeficient mice. As to the method:
Intravenous cannulas were placed into the external jugular vein of NOD-SCID mice under anesthesia (Institutional Animal Care and Use Committee protocol #AM87046-07) to enable the efficient delivery of ^111In-labeled stem cells i.v. Tylenol elixir was administered by mouth after recovery from anesthesia. Briefly radiolabeled CD34+ cells were taken up in 100-250 ul of 5% human plasma albumin in saline and injected into the cannula and then flushed with 50 ul of the albumin-saline. The mice were imaged by nuclear medicine.
Mice: NOD-SCID, female mice (Nonobese diabetic/LtSz-scid/scid) were obtained from the Jackson Laboratory, Bar Harbor, Me. at 1-2 months of age. These animals were maintained in microisolator cages in a special isolator room. The air was HEPA filtered, and the animals were changed in a laminar flow hood within the facility. All food, bedding, and water was sterilized. […] See, e.g. Hogan, et al., Biology of Blood & Marrow Transplantation 3:236-246 (1997); Noort, et al., Bone Marrow Transplantation 22 Suppl 1:S58-60 (1998).
as §3, §4, §5
5.75×10^6 111In-labeled human CD34+ (hCD34+) peripheral blood stem cells were administered intravenously (i.v.) via an external jugular vein cannula to 2 month old, NOD-SCID, female mice (Non-obese diabetic/LtSz-scid/scid) obtained from the Jackson Laboratory, Bar Harbor, Me. The radiolabeled CD34+ stem cells were administered after pretreatment of the mouse with 3.3 mg of asialoorosomucoid (ASO) i.v. The in vivo trafficking patterns were followed by gamma camera imaging using a Siemens E.Cam dual head gamma camera from immediately after injection up to 36 hr postinfusion. Human CD34+ were isolated from apheresis stem cell collection products derived from deceased cancer patients. They were purified to 95-99% purity using antibody conjugated to CD34 conjugated to magnetics beads (MACS) separation columns; Miltenyi Biotec, Auburn, Calif. and cryopreserved.
5.75×10^6 111In-labeled human CD34+ (hCD34+) peripheral blood stem cells were administered intravenously (i.v.) via an external jugular vein cannula to 2 month old, NOD-SCID, female mice (Non-obese diabetic/LtSz-scid/scid) obtained from the Jackson Laboratory, Bar Harbor, Me. The radiolabeled CD34+ stem cells were administered after pretreatment of the mouse with 5.5 mg of orosomucoid (O) i.v.
The preparation and procedures set forth in Example I were repeated. […]

In a further experiment the test system is Caki-2 Targets. Put plainly: 51Cr-release assay of LAK effectors against CAKI-2 with agent added. Format: cell-based, human. The following applies: for % 51Chromium Release from Caki-2 Targets: agent 250 μg per well, 5-day LAK, 4-hour incubation. From the text:
A working hypothesis is that LAK/NK cells bind to HEPG2 via at least two receptors or recognition structures: 1) the ASGPR, which binds an asialodeterminant on the LAK/NK population and 2) the “LAK” or “NK” recognition structure for a target epitope. The first should be inhibitable by ASF; the second should not be. Binding to CAKI-2 (ASGPR−) should not be inhibited by ASF and is due to a LAK or NK recognition structure binding to the target epitope. This can be further supported by data derived from experiments (see below) in which 250 μg/well of ASF or F were added to the ^51Cr-release assay of LAK effectors against the labeled target CAKI-2.
(% SPECIFIC RELEASE was determined from quadruplicates whose raw counts per minute differed by less than 10 percent; the assay was a standard 4-hour incubation.)

In the case of “Neuraminidase: Vibrio cholera neuraminidase used to treat LAK cells and generate cell surface asialodeterminants”, the “adherence of LAK activity to HEPG2 (assayed on RAJI) after cell surface modification” value with HEPG2 (ASGPR+) (23° C for 2 hours) is “did not”. In addition, the “LAK activity (killing of RAJI) after enzyme treatment of effector cell surface” value was “enhances” in experiment [1] and “significantly enhanced” in experiment [1] (listed as neuraminidase). The “IL-2 activated NK (killing K562 targets) after enzyme treatment of effector cell surface” value in experiment [2] (enzyme-treated LAK cells) is given as “does not enhance”. In addition, the “adherence to CAKI-2 of IL-2 activated NK activity (assayed on K562) after cell surface modification” value with CAKI-2 (ASGPR−) (5-day LAK, 23° C for 2 hours) was “promotes adherence”.
Consider asialoorosomucoid [ASO], for which the “% Infused Cells in Liver/Spleen” value in experiment [3] (0 hr) is on record as 63 ± 5% at 0 hr; in experiment [3] (1 hr) it was 57 ± 7% at 1 hr. In experiment [3] (cells preceded by infusion of the protein, jugular vein, immunodeficient mice), the “organ localization of infused mesenchymal stem cells, in words” value is “localize in the liver”. Also, the “migration of CD34+ cells to the liver and spleen, in words” value in experiment [4] (5.75×10^6 HSC after 3.3 mg ASO i.v., early postinfusion images) is “did not migrate to the liver and spleen early”. The “organ localization of infused hematopoietic (CD34+) stem cells, in words” value is reported as “migrated immediately to the heart” in experiment [4] and “predominantly localize in the heart” in experiment [4] (listed as asialoorosomucoid).
For fetuin [reference compound], the “inhibition of adherence to HEPG2 of LAK activity (assayed on RAJI)” value in the experiment with HEPG2 (ASGPR+) (23° C, 200 μg/ml) is reported as “could not be inhibited”. Also, in the experiment on HEPG2 (ASGPR+) (23° C, 200 μg/ml, assayed on RAJI), the “inhibition of adherence of LAK activity of the neuraminidase-treated population to HEPG2” value is on record as “not”. Besides, the “inhibition of adherence to HEPG2 of IL-2 activated NK (assayed on K562)” value in the experiment on HEPG2 (ASGPR+) (23° C, with or without neuraminidase treatment, 200 μg/ml) is “not”. Further, the “% 51Chromium Release from Caki-2 Targets” value in the experiment on Caki-2 Targets (E:T 5:1) is on record as 16%; with Caki-2 Targets (E:T 10:1) it was 27%; in the experiment on Caki-2 Targets (E:T 20:1) it was 42%; in the experiment on Caki-2 Targets (E:T 40:1), 58%. Moreover, the “blocking of LAK killing of the tumor target CAKI-2, in words” value in the experiment on Caki-2 Targets (preincubation of targets and addition to the assay at 250 μg per well) is on record as “does not block”. For the same substance, in experiment [1] (200 μg/ml for 2 h at 40C, no monolayer), the “activity of LAK or Control preparations incubated with the protein alone versus untreated LAK” value is reported as “identical activity”. For the same substance, in experiment [1] (200 μg/ml, 23° C), the “ability of effectors (LAK or LAK/NS) to kill RAJI after preincubation with the protein” value is reported as “does not affect”. Moreover, in experiment [2] (200 μg/ml, 23° C), the “ability of effectors (LAK or LAK/NS) to kill K562 after preincubation with the protein” value was “does not affect”. The “inhibition of adherence to CAKI-2 of IL-2 activated NK or LAK activity” value in the experiment with CAKI-2 (ASGPR−) (23° C, 200 μg/ml) was “could not be inhibited”.

These data come from US20070110734A9, “Methods and compositions using cellular asialodeterminants and glycoconjugates for targeting cells to tissues and organs” (Department of Veterans Affairs, Rehabilitation R&D Service, priority 2002, published 2007).
